According to patent US20090202618A1, “Dna vaccines encoding hsp60 peptide fragments for treating autoimmune diseases” (Yeda Research & Development Co. Ltd, priority 2003, published 2009):

Test system: LNC
Experiment: LNC proliferative response to overlapping peptides of HSP60
Assay type: cell-based, Lewis rats
Details: day 26 after AA induction, SI±SEM, SI<2 considered not significant
Description: T-cell proliferation assays were performed at day 26 after the induction of AA, when the disease is at its peak, as previously described (Quintana et al., 2002). Briefly, popliteal and inguinal lymph node cells (LNC), were cultured in quadruplicates in 200 μl round bottom microtiter wells (Costar Corp., Cambridge, USA) at 2×10^5 cells per well with or without antigen. The T-cell mitogen Concanavalin A (Con A) was used as a positive control for T-cell proliferation. Cultures were incubated for 96 hr at 37° C. in a humidified atmosphere of 5% CO2. T-cell responses were detected by the incorporation of [methyl-3H]-thymidine (Amersham, Buckinghamshire, UK; 1 μCi/well), which was added to the wells for the last 18 hr. The stimulation index (SI) was computed as the ratio of the mean c.p.m. of antigen- or mitogen-containing wells to control wells cultured with medium alone. The results of T-cell proliferation experiments are shown as SI±SEM, T-cell responses with SI<2 were considered not significant.
It was previously reported that the suppression of AA by pHSP60 DNA vaccination was associated with T-cell reactivity to a single HSP60 peptide epitope, Hu3 (Quintana et al., 2003). […]

KFGADARALMLQGVDLLADA (human hsp60 epitope) [Hu3]
Stimulation Index (SI) (LNC from pHSP70-vaccinated rats): did not respond | Stimulation Index (SI) (LNC from pcDNA3-vaccinated rats): did not respond
